Values quoted from earlier work in paper PMC7385171, “Molecular engineering of safe and efficacious oral basal insulin” (Nature Communications, 2020).

Conditions: man, 8-week study; oral for the analogue, SC for insulin glargine

insulin glargine
coefficient of variation of fasting plasma glucose: 17.5%
